From ChEMBL document CHEMBL1649380, “Prediction of drug intestinal absorption by new linear and non-linear QSPR” (Eur J Med Chem, 2011)

Experiment: Drug absorption in human assessed as human intestinal absorption rate
Format: ADME, tissue-based, Intestine

Compound	log10(%HIA +10)
CC(CCc1ccccc1)NCC(O)c1ccc(O)c(C(N)=O)c1 (centres undefined) [LABETALOL]	2.021
OC[C@H]1O[C@@H](O[C@@H]2[C@@H](CO)O[C@](O)(CO)[C@H]2O)[C@H](O)[C@@H](O)[C@H]1O [LACTULOSE]	1.025
Nc1ccn([C@@H]2CS[C@H](CO)O2)c(=O)n1 [LAMIVUDINE]	1.987
Cc1c(OCC(F)(F)F)ccnc1C[S+]([O-])c1nc2ccccc2[nH]1 (centres undefined) [LANSOPRAZOLE]	1.978
CCC[C@@H]1C[C@@H](C(=O)N[C@@H]([C@H]2O[C@H](SC)[C@H](O)[C@@H](O)[C@H]2O)[C@@H](C)O)N(C)C1 [LINCOMYCIN]	1.574
NCCCC[C@H](N[C@@H](CCc1ccccc1)C(=O)O)C(=O)N1CCC[C@H]1C(=O)O [LISINOPRIL ANHYDROUS]	1.544
CC[C@H](C)C(=O)O[C@H]1C[C@@H](C)C=C2C=C[C@H](C)[C@H](CC[C@@H]3C[C@@H](O)CC(=O)O3)[C@H]21 [LOVASTATIN]	1.608
OC[C@@H](O)[C@@H](O)[C@H](O)[C@H](O)CO [MANNITOL]	1.415
C[C@@H](O)[C@H]1C(=O)N2C(C(=O)O)=C(S[C@@H]3CN[C@H](C(=O)N(C)C)C3)[C@H](C)[C@H]12 [MEROPENEM]	1
CC(C)NCC(O)c1cc(O)cc(O)c1 (centres undefined) [METAPROTERENOL]	1.732
CN(C)C(=N)N=C(N)N [METFORMIN]	1.799
C[C@](N)(Cc1ccc(O)c(O)c1)C(=O)O [METHYLDOPA]	1.708
Cc1ccccc1N1C(=O)c2cc(S(N)(=O)=O)c(Cl)cc2NC1C (centres undefined) [METOLAZONE]	1.863
CC1(C)S[C@@H]2[C@H](NC(=O)[C@H](NC(=O)N3CCN(S(C)(=O)=O)C3=O)c3ccccc3)C(=O)N2[C@H]1C(=O)O [MEZLOCILLIN]	1
CN1CCN2c3ccccc3Cc3ccccc3C2C1 (centres undefined) [MIANSERIN]	1.903
COCC(=O)O[C@]1(CCN(C)CCCc2nc3ccccc3[nH]2)CCc2cc(F)ccc2[C@@H]1C(C)C [MIBEFRADIL]	1.898
Nc1cc(N2CCCCC2)nc(N)[n+]1[O-] [MINOXIDIL]	2.033
O=C1c2c(O)ccc(O)c2C(=O)c2c(NCCNCCO)ccc(NCCNCCO)c21 [MITOXANTRONE]	1.176
CCOC(=O)[C@H](CCc1ccccc1)N[C@@H](C)C(=O)N1Cc2cc(OC)c(OC)cc2C[C@H]1C(=O)O [MOEXIPRIL]	1.176
CCOC(=O)Nc1ccc2c(c1)N(C(=O)CCN1CCOCC1)c1ccccc1S2 [MORICIZINE]	1.991
CC(=O)Oc1cc(C(C)C)c(OCCN(C)C)cc1C [MOXISYLYTE]	1.903
COc1nc(C)nc(Cl)c1N=C1NCCN1 [MOXONIDINE]	1.991
CC(C)(C)NCC(O)COc1cccc2c1CC(O)C(O)C2 (centres undefined) [NADOLOL]	1.613

Compound	log10(%HIA +10)
COc1ccc2cc([C@H](C)C(=O)O)ccc2c1 [NAPROXEN]	2.037
CCCc1c2oc(C(=O)O)cc(=O)c2cc2c(=O)cc(C(=O)O)n(CC)c12 [NEDOCROMIL]	1.114
CCN[C@@H]1C[C@H](N)[C@@H](O[C@H]2OC(CN)=CC[C@H]2N)[C@H](O)[C@H]1O[C@H]1OC[C@](C)(O)[C@H](NC)[C@H]1O [NETILMICIN]	1
CCOC(=O)C1=C(C)NC(C)=C(C(=O)OC)C1c1cccc([N+](=O)[O-])c1 (centres undefined) [NITRENDIPINE]	1.991
O=C(O)c1cc(/N=N/c2ccc(O)c(C(=O)O)c2)ccc1O [OLSALAZINE]	1.09
C[C@@H]1O[C@@H](O[C@H]2C[C@@H](O)[C@]3(CO)[C@H]4[C@H](O)C[C@]5(C)[C@@H](C6=CC(=O)OC6)CC[C@]5(O)[C@@H]4CC[C@]3(O)C2)[C@H](O)[C@H](O)[C@H]1O [OUABAIN]	1.057
COc1ccc2c3c1O[C@H]1C(=O)CC[C@@]4(O)[C@@H](C2)N(C)CC[C@]314 [OXYCODONE]	1.845
COc1cccc(C(=O)CCN[C@@H](C)[C@H](O)c2ccccc2)c1 [OXYFEDRINE]	1.978
CN(C)[C@@H]1C(O)=C(C(N)=O)C(=O)[C@@]2(O)C(O)=C3C(=O)c4c(O)cccc4[C@@](C)(O)[C@H]3[C@H](O)[C@@H]12 [OXYTETRACYCLINE]	1.833
CC(C)NCC(O)COc1ccc(CCNC(=O)NC(C)C)cc1 (centres undefined) [PAFENOLOL]	1.591
NCCC(O)(P(=O)(O)O)P(=O)(O)O [PAMIDRONIC ACID]	1.176
N=C(N)c1ccc(OCCCCCOc2ccc(C(=N)N)cc2)cc1 [PENTAMIDINE]	1
O=C(O)c1ccccc1C(=O)Nc1ccc(S(=O)(=O)Nc2nccs2)cc1 [PHTHALYLSULFATHIAZOLE]	1.176
O=c1[nH]c2ccccc2n1C1CCN(CCCC(c2ccc(F)cc2)c2ccc(F)cc2)CC1 [PIMOZIDE]	1.903
CC(C)(C)NCC(O)c1ccc(O)c(CO)n1 (centres undefined) [PIRBUTEROL]	1.845
CC[C@H](C)C(=O)O[C@H]1C[C@H](O)C=C2C=C[C@H](C)[C@H](CC[C@@H](O)C[C@@H](O)CC(=O)O)[C@H]21 [PRAVASTATIN]	1.643
CC(C)NCC(O)COc1cccc2ccccc12 (centres undefined) [PROPRANOLOL]	2.037
CCCc1cc(=O)[nH]c(=S)[nH]1 [PROPYLTHIOURACIL]	1.929
OCCOCCN1CCN(C2=Nc3ccccc3Sc3ccccc32)CC1 [QUETIAPINE]	1.919
OC[C@H]1O[C@H](OC[C@H]2O[C@H](O[C@]3(CO)O[C@H](CO)[C@@H](O)[C@@H]3O)[C@H](O)[C@@H](O)[C@@H]2O)[C@H](O)[C@@H](O)[C@H]1O [RAFFINOSE]	1.013
CNC(=C[N+](=O)[O-])NCCSCc1ccc(CN(C)C)o1 [RANITIDINE]	1.798
Cn1c(=O)c2c(ncn2CCCNCC(O)c2cc(O)cc(O)c2)n(C)c1=O (centres undefined) [REPROTEROL]	1.845
Oc1ccc(C(O)C2CCCCN2)cc1O (centres undefined) [RIMITEROL]	1.763

Compound	log10(%HIA +10)
O=P(O)(O)C(O)(Cc1cccnc1)P(=O)(O)O [RISEDRONIC ACID]	1.041
CCN(C)C(=O)Oc1cccc([C@H](C)N(C)C)c1 [RIVASTIGMINE]	2.041
O=C1NS(=O)(=O)c2ccccc21 [SACCHARIN]	1.991
CC(C)NCC(O)c1ccc(NS(C)(=O)=O)cc1 (centres undefined) [SOTALOL]	2.021
[H]/N=C(/N)N[C@H]1[C@H](O)[C@@H](O)[C@H](O[C@@H]2O[C@@H](C)[C@](O)(C=O)[C@H]2O[C@@H]2O[C@@H](CO)[C@H](O)[C@@H](O)[C@@H]2NC)[C@@H](N/C(N)=N\[H])[C@@H]1O [STREPTOMYCIN]	1.041
CN(N=O)C(=O)N[C@@H](C=O)[C@@H](O)[C@H](O)[C@H](O)CO [STREPTOZOCIN]	1
O=C(O)CCC(=O)Nc1ccc(S(=O)(=O)Nc2nccs2)cc1 [SUCCINYLSULFATHIAZOLE]	1.176
CCN1CCCC1CNC(=O)c1cc(S(N)(=O)=O)ccc1OC (centres undefined) [SULPIRIDE]	1.732
CCN1CCCC1CNC(=O)c1cc(S(=O)(=O)CC)ccc1OC (centres undefined) [SULTOPRIDE]	1.996
NC(=O)N1C(=O)/C(=C(\O)c2cccs2)c2cc(Cl)ccc21 [TENIDAP]	1.996
CC(C)(C)NCC(O)c1cc(O)cc(O)c1 (centres undefined) [TERBUTALINE]	1.857
CC1(C)S[C@@H]2[C@H](NC(=O)[C@H](C(=O)O)c3ccsc3)C(=O)N2[C@H]1C(=O)O [TICARCILLIN]	1.176
CC(C)(C)NC[C@H](O)COc1nsnc1N1CCOCC1 [TIMOLOL]	2.021
NC[C@H]1O[C@H](O[C@H]2[C@H](O)[C@@H](O[C@H]3O[C@H](CO)[C@@H](O)[C@H](N)[C@H]3O)[C@H](N)C[C@@H]2N)[C@H](N)C[C@@H]1O [TOBRAMYCIN]	1
CCCCNC(=O)NS(=O)(=O)c1ccc(C)cc1 [TOLBUTAMIDE]	1.978
COc1ccc2c(C(=S)N(C)CC(=O)O)cccc2c1C(F)(F)F [TOLRESTAT]	1.881
CCOC(=O)[C@H](CCc1ccccc1)N[C@@H](C)C(=O)N1[C@H](C(=O)O)C[C@H]2CCCC[C@@H]21 [TRANDOLAPRIL]	1.778
COc1cc(Cc2cnc(N)nc2N)cc(OC)c1OC [TRIMETHOPRIM]	2.029
CC(=O)CC(c1ccccc1)c1c(O)c2ccccc2oc1=O (centres undefined) [WARFARIN]	2.033
Nc1ccn([C@H]2CC[C@@H](CO)O2)c(=O)n1 [ZALCITABINE]	1.978
O=C1Cc2cc(CCN3CCN(c4nsc5ccccc45)CC3)c(Cl)cc2N1 [ZIPRASIDONE]	1.845
GENTAMICIN	1
IVERMECTIN	1.845
